In the NIST ThermoML archive (doi:10.1016/j.fluid.2016.02.037):
“And” between values parts separate entries of the source, which are not always exact repeats. Equal values may be shown once.

Test: Molar enthalpy of transition or fusion
Conditions: Crystal; DSC

SMILES: Cn1nnnc1SCC1=C(C(=O)[O-])N2C(=O)[C@@H](NC(=O)[C@H](OC=O)c3ccccc3)[C@H]2SC1.[Na+] [cefamandole nafate]
- Molar enthalpy of transition or fusion: 4.51 kcal/mol and 3.33 kcal/mol
